Calls of active or inactive are those of the source.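 The calls were made as follows: active = IC50 of 10 µM or lower; inactive = IC50 above 10 µM.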
system: E. coli AddAB+ with T4 gene 2 phage, OD growth; assay: inhibition of AddAB recombination enzyme – absorbance, E. coli, T4 phage, dose response (AID 492959);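 also: growth read as OD600 after 18 h at 37 °C; AddAB inhibitors let the phage kill the cells so OD falls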; conditions: AddAB enzyme is from H. pylori; T4 phage with nonsense-mutated gene 2

Row | SMILES | IC50
1 | CCCC(=O)NC(c1ccc(Cl)cc1)c1ccc2cccnc2c1O (stereo not given) | > 119 µM (inactive)
2 | CCC(C)NC(=O)c1cn(CC)c2cc(N3CCN(C(=O)c4ccco4)CC3)c(F)cc2c1=O (stereo not given) | 17.6 µM (inactive)
3 | COc1cccc(-n2c(SCc3cc(=O)oc4cc(O)c(O)cc34)nc3ccccc3c2=O)c1 | > 119 µM (inactive)
4 | CCC(=O)NC(c1ccc(C)cc1)c1cc(Cl)c2cccnc2c1O (stereo not given) | > 119 µM (inactive)
5 | O=C(/C=C1\NC2(CCCC2)Cc2ccccc21)C(=O)N/N=C/c1ccccc1O | > 119 µM (inactive)
6 | O=C(Cn1cnc2ccccc21)Nc1ccc2c(c1)OCCCO2 | > 119 µM (inactive)
7 | CCCCC(=O)NC(c1cccs1)c1cc(Cl)c2cccnc2c1O (stereo not given) | > 119 µM (inactive)
8 | O=C(Nc1ccc([N+](=O)[O-])cc1)Nc1ccc(OC(F)F)c(Cl)c1 | > 119 µM (inactive)
9 | O=C1c2ccccc2NC(c2ccc(-c3cccc([N+](=O)[O-])c3)o2)N1O (stereo not given) | > 119 µM (inactive)
10 | COCCN=c1scc(-c2cccs2)n1/N=C/c1ccc(O)c(O)c1O | > 119 µM (inactive)
11 | C/C(=N\Nc1ccc2nncn2n1)c1ccccn1 | > 119 µM (inactive)
12 | O=[N+]([O-])c1ccc(N/N=C/c2ccc[nH]2)cc1 | > 119 µM (inactive)
13 | CC(C)Oc1ccc(Cc2cnc(N)nc2N)cc1 | 31.2 µM (inactive)
14 | O=C(NNC(=O)c1cc2ccccc2cc1O)Nc1ccc(Br)cc1 | > 119 µM (inactive)
15 | O=c1oc2ccccc2c(NC(c2ccccc2)c2ccccc2)c1[N+](=O)[O-] | 35.1 µM (inactive)
16 | CC1(C)OC(=O)C(=NNc2ccc(O)cc2)C(=O)O1 | > 119 µM (inactive)
17 | N#Cc1ccc(NC(=O)Nc2ccc(Cl)cc2)cc1 | > 119 µM (inactive)
18 | Nc1c(Cl)ncnc1N/N=C/c1ccc2ccccc2n1 | > 119 µM (inactive)
19 | CCOC(=O)c1ccc(-c2ccc(C3Nc4ccccc4C(=O)N3O)o2)cc1 (stereo not given) | > 119 µM (inactive)
20 | CC(C)CC(=O)NC(c1cccs1)c1ccc2cccnc2c1O (stereo not given) | > 119 µM (inactive)
21 | CC(C)C(=O)NC(c1ccc(Cl)cc1Cl)c1ccc2cccnc2c1O (stereo not given) | > 119 µM (inactive)
22 | O=C1c2ccccc2NC(c2ccc(-c3ccc(Br)cc3)o2)N1O (stereo not given) | > 119 µM (inactive)
23 | N#Cc1c(-c2ccccc2)ccn(Cc2cccc(Cl)c2)c1=O | > 119 µM (inactive)
24 | COc1cccc(/C=N/Nc2ncc(C(F)(F)F)cc2Cl)c1O | > 119 µM (inactive)
25 | CCOC(=O)c1ccc(NC(=O)Cn2cnc3cc(C)c(C)cc32)cc1 | > 119 µM (inactive)

Row | SMILES | IC50
26 | Cc1cc(NC(c2ccc(Cl)cc2)c2ccc3cccnc3c2O)no1 (stereo not given) | > 119 µM (inactive)
27 | CCCCCOc1ccc(CSC(=N)N)cc1[N+](=O)[O-] | > 39.5 µM (inactive)
28 | Cc1cc(Cl)ccc1NC(=S)NCc1ccccc1Cl | > 119 µM (inactive)
29 | CCCCC(=O)NC(c1ccc(N(C)C)cc1)c1ccc2cccnc2c1O (stereo not given) | > 119 µM (inactive)
30 | Nc1nonc1-n1nnc(C(=O)N/N=C/c2cc(Br)ccc2O)c1CSC1=NCCS1 | > 119 µM (inactive)
31 | Cc1cccnc1NC(=O)c1ccc([N+](=O)[O-])o1 | 10.1 µM (inactive)
32 | Cc1cc(N/N=C/c2ccc(O)cc2O)nc(-c2ccccc2O)n1 | > 119 µM (inactive)
33 | C=CCn1c(Sc2ncc([N+](=O)[O-])s2)n[nH]c1=O | 11.8 µM (inactive)
34 | COc1ccccc1/C=C1\SC(=S)N(CCC(=O)NNC(=O)c2ccccc2O)C1=O | > 119 µM (inactive)
35 | COc1ccc2nc(NC(=O)CCNC(=O)c3ccco3)sc2c1 | > 119 µM (inactive)
36 | O=C(NC(NC(=S)Nc1ccc(Cl)c(Cl)c1)C(Cl)(Cl)Cl)c1ccco1 (stereo not given) | > 119 µM (inactive)
37 | Cc1ccc2nc(/C(C#N)=C\c3ccc([N+](=O)[O-])o3)[nH]c2c1 | 4.86 µM
38 | O=C(O)CC1S/C(=N/N=C/c2ccccn2)NC1=O (stereo not given) | > 118 µM (inactive)
39 | O=C(CSc1nc2ccccc2o1)Nc1ccc(N2CCOCC2)cc1 | > 119 µM (inactive)
40 | CCCCC(=O)NC(c1ccccc1Cl)c1ccc2cccnc2c1O (stereo not given) | > 119 µM (inactive)
41 | CCCC(=O)NC(c1ccc(C)cc1)c1ccc2cccnc2c1O (stereo not given) | > 119 µM (inactive)
42 | O=C(CSC1=NNC(c2ccccn2)S1)Nc1ccccc1 (stereo not given) | > 118 µM (inactive)
43 | CCCNC(=O)c1ccc2c(=O)c(O)c(-c3ccsc3)[nH]c2c1 | > 118 µM (inactive)
44 | CCCC(=O)NC(c1ccc(Cl)cc1Cl)c1ccc2cccnc2c1O (stereo not given) | > 119 µM (inactive)
45 | C=CCSc1nsc(NC(=O)Nc2ccc(F)cc2)n1 | > 119 µM (inactive)
46 | NC(=S)N/N=C/c1ncc(C(F)(F)F)cc1Cl | > 119 µM (inactive)
47 | Cc1onc(-c2c(Cl)cccc2Cl)c1C(=O)N/N=C(\N)COc1ccc(Cl)cc1 | > 119 µM (inactive)
48 | O=[N+]([O-])c1cc(O)c2ncccc2c1 | 46.5 µM (inactive)
49 | COc1ccc(OCC(O)CNc2ccc(Br)cc2)cc1 (stereo not given) | > 119 µM (inactive)
50 | Cc1ccc(CNC(=O)c2ccc3c(=O)c(O)c(-c4ccc(C)cc4)[nH]c3c2)cc1 | > 119 µM (inactive)

— PubChem BioAssay AID492959 (The Scripps Research Institute Molecular Screening Center, 2010)
